Laboratory results taken from PubChem BioAssay (NCI).
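These data come from cells grown in 96-well plates and exposed to compound for 48 hours at five concentrations. Definition used: TGI = concentration required for complete inhibition of growth.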

What was measured:
Assay in all cases: DTP human tumour cell line panel, 48 h
[1] = system: SK-MEL-28 melanoma
[2] = system: MCF7 breast
[3] = system: HOP-92 NSCLC
[4] = system: HS 578T breast
[5] = system: RXF 393 renal
[6] = system: NCI-H23 lung
[7] = system: DU-145 prostate
[8] = system: A498 renal
[9] = system: HOP-62 NSCLC
[10] = system: SW-620 colon
[11] = system: 786-0 renal
[12] = system: UO-31 renal
[13] = system: OVCAR-4 ovarian
[14] = system: NCI-H460 lung

Compound | TGI [1] | TGI [2] | TGI [3] | TGI [4] | TGI [5] | TGI [6] | TGI [7] | TGI [8] | TGI [9] | TGI [10] | TGI [11] | TGI [12] | TGI [13] | TGI [14]
Cc1cn(C2CC(n3cc(Cn4cc(Br)c(=O)[nH]c4=O)nn3)C(CO)O2)c(=O)[nH]c1=O (stereo unspecified) | > 100 µM | > 100 µM | > 100 µM | > 100 µM | > 100 µM | > 100 µM | > 100 µM | > 100 µM | > 100 µM | > 100 µM | > 100 µM | > 100 µM | > 100 µM | 
CCC1(C)N=C(c2cnccn2)NN1c1ccc(Cl)cc1 (stereo unspecified) | > 100 µM | > 100 µM | > 100 µM | > 100 µM | > 100 µM | > 100 µM | > 100 µM | > 100 µM | > 100 µM | > 100 µM | > 100 µM | > 100 µM | > 100 µM | > 100 µM
N#Cc1nc(-c2cccs2)oc1N | > 100 µM | > 100 µM | > 100 µM | > 100 µM | > 100 µM | > 100 µM | > 100 µM | > 100 µM | > 100 µM | > 100 µM | > 100 µM | > 100 µM | > 100 µM | > 100 µM
CCOC(=O)/C1=C(\C)N(c2ccc(C)cc2)C(=O)c2ccccc2C(=O)c2c(OC(C)=O)ccc(OC(C)=O)c21 | 12.2 µM | 97.7 µM | > 100 µM | 48.2 µM | 92.9 µM | 71.1 µM | > 100 µM | > 100 µM | 87.3 µM | > 100 µM | > 100 µM | > 100 µM | 54.2 µM | 47.8 µM
CCC1(C(=O)OC(C)(C)C)OC12C(C)CCCC2C (stereo unspecified) | > 100 µM | 51.4 µM | 85.9 µM | > 100 µM | 36.4 µM | > 100 µM | > 100 µM | > 100 µM | > 100 µM | > 100 µM | > 100 µM | > 100 µM | > 100 µM | > 100 µM
CCOC(=O)/C=C(\C(=O)OCC)n1cc(C)c(=O)n(Cc2cnnn2CCCCOC(C)=O)c1=O | 25.1 µM | 21.5 µM | 4.83 µM | > 66.4 µM | 9.1 µM | 36.8 µM | > 55.8 µM | 37.5 µM | > 68.1 µM | > 38.4 µM | 28 µM | 30 µM | 58 µM | 65.7 µM
N#Cc1c(-c2ccccc2)nc(-c2ccccc2)sc1=S | > 100 µM | > 100 µM | > 100 µM | > 100 µM | > 100 µM | > 100 µM | > 100 µM | > 100 µM | > 100 µM | > 100 µM | > 100 µM | > 100 µM | > 100 µM | > 100 µM
CCCSc1ccc2[nH]c(/N=C/c3ccco3)cc2c1 | > 100 µM | > 100 µM | > 100 µM | > 100 µM | > 100 µM | > 100 µM | > 100 µM | > 100 µM | > 100 µM | > 100 µM | > 100 µM | > 100 µM | > 100 µM | 
O=c1[nH]nc(Cc2ccc([N+](=O)[O-])cc2)n1CCO | > 100 µM | > 100 µM | > 100 µM | > 100 µM |  | > 100 µM | > 100 µM | > 100 µM |  | > 100 µM | > 100 µM | > 100 µM | > 100 µM | > 100 µM
NP(=O)(OCC1=CC(=O)c2ccccc2C1=O)N(CCBr)CCBr (stereo unspecified) | 11.7 µM | > 40.9 µM | 31.5 µM | 90.7 µM | 21.8 µM | 14.2 µM | 18.1 µM | 39.3 µM |  | > 34.2 µM | 28.6 µM | 24.1 µM | 31.6 µM | 16 µM
CCC(C#N)NC(=O)NC(C#N)CC (stereo unspecified) |  | > 100 µM | > 100 µM | > 100 µM | > 100 µM | > 100 µM | > 100 µM | > 100 µM | > 100 µM | > 100 µM | > 100 µM | > 100 µM | > 100 µM | > 100 µM
O=c1c2c([N+](=O)[O-])cccc2nc2[nH]c3ccccc3n12 | > 75 µM | > 75 µM | 69 µM | > 75 µM | 30.4 µM | > 75 µM | > 75 µM | > 75 µM | > 75 µM | > 75 µM | > 75 µM |  | 23.9 µM | > 75 µM
CC(=O)c1ccc2c3c1[C@@H]1O[C@@H]1c1cccc(c1-3)[C@@H]1O[C@H]21 | 13 µM | > 40.1 µM | 29.7 µM | 70.7 µM | 25.8 µM | 23.3 µM | 23.2 µM | > 85.8 µM | 36.6 µM | 7.99 µM | 24.9 µM | 30.2 µM | 27.3 µM | 
CCN1C(=O)C(=C/C=C/c2ccc([N+](=O)[O-])cc2)C(=O)N(CC)C1=S | 31.9 µM | 52.5 µM | 34.2 µM | 55.1 µM | 33.1 µM | 32.8 µM | 33.3 µM |  | 39.2 µM | 36.8 µM | 34.3 µM | 37.2 µM | > 100 µM | > 100 µM
Nc1cccc(Nc2nc3ccccc3nc2NS(=O)(=O)c2ccccc2)c1 | 49.3 µM | > 100 µM | 78 µM | > 100 µM | 38.7 µM | 42.6 µM | > 100 µM |  | 96.2 µM | 44.2 µM | > 100 µM | 50.4 µM | 46.5 µM | 71.1 µM
COc1cc(C2SCC(=O)N2c2ccc(-c3ccc(-n4c(-c5ccccc5)nc5ccccc5c4=O)cc3)cc2)cc(OC)c1OC (stereo unspecified) | > 100 µM | > 100 µM | > 100 µM | > 100 µM |  | > 100 µM | > 100 µM | > 100 µM | 85.5 µM | > 100 µM | 47.6 µM | > 100 µM | > 100 µM | > 100 µM
C=CCCC(=O)CC(O)(C(F)(F)F)C(F)(F)F | > 100 µM | > 100 µM | > 100 µM | > 100 µM | > 100 µM | > 100 µM | > 100 µM | > 100 µM |  | > 100 µM | > 100 µM | > 100 µM | > 100 µM | > 100 µM
